Laboratory results from patent US12083091B2, “Inhibitors of glucosylceramide degradation in the treatment of diseases of the motor units” (priority 2016, dated 2024).

Key:
GCase = assay: Total GCase activity in the spinal cord after CBE treatment; type: in vivo, mice; conditions: CBE 10 mg/kg/day, intraperitoneal
SOD1 mice = assay: SOD1(G86R) mice, animal model of ALS: disease onset, motor function, motor unit histology, survival; type: in vivo
Protocol: Ambroxol was given orally in the drinking water. […] Non-transgenic littermates served as controls. […] Average speed, paw swing and stride length were measured. […] Non-transgenic littermates served as controls.
Spinal cord: Lumbar spinal cord fixed in paraformaldehyde 4% were used for studying the distribution of GM1a around motor neurons. Coronal section 40 μm thick were realized with a vibratome and were stained with an anti-[…] (1/100, Millipore, France) and an alexa594 conjugated goat (1/200, Jackson) antibodies. GM1a was detected with the cholera toxin sub-unit beta coupled with an Allexa488 dye (1/200, ThermoFisher). Fluorescence intensity of GM1a was calculated with an image processing program (ImageJ). For motor neuron couting, all neurons located in the ventral horn, that were >400 μm^2 in size and ChAT positive were considered as alpha motor neurons. Six sections of spinal cord that were apart over a length of 0.24 mm were counted.
Muscle bundles: Tibialis anterior muscles fixed in paraformaldehyde 4% were dissected into bundles under a binocular microscope. Bundles were collected from at least three different parts of the muscle. Acetylcholine receptors in the postsynaptic apparatus of neuromuscular junctions were labeled with rhodamine-conjugated α-bungarotoxin (Sigma-Aldrich). Immunofluorescent labeling of nerve terminals was performed with a rabbit polyclonal anti-synaptophysin antibody diluted 1/200 (Abcam, Cambridge, UK), and Alexa conjugated goat anti-rabbit diluted 1/500 (Jackson). Neuromuscular junction integrity was assessed by studying the colocalization of synaptophysin and bungarotoxin signal. […].
Coronal muscle sections: Twenty-micrometer sections were obtained by cutting isopentane fresh-frozen tibialis anterior muscles perpendicular to the muscle axis with a cryostat at −20° C. (Leica, Nanterre, France). Acetylcholine receptors in the postsynaptic apparatus of neuromuscular junctions were labeled with rhodamine-conjugated α-bungarotoxin (Sigma-Aldrich). GM1a distribution was labeled with the cholera toxin sub-unit beta coupled with an Allexa488 dye (1/200, ThermoFisher).

non-transgenic mice [1] = assay: Sciatic nerve injury (crush) in non-transgenic mice: functional recovery and re-innervation; type: in vivo
Protocol: Sciatic Nerve Injury: Peripheral nerve injury was performed in order to induce muscle denervation and axonal regeneration. Non-transgenic mice were anesthetized with ketamine chlorohydrate (100 mg/kg) and xylazine (5 mg/kg). The sciatic nerve was exposed at mid-thigh level and crushed with fine forceps for 30 s. The skin incision was sutured, and mice were allowed to recover. The hind limb, contralateral to the lesion, served as control. Mice were treated with CBE (10 mg/kg/d) for 12 days, or with ambroxol (120-150 mg/kg/day) for 10 days, starting the day before surgery. Mice were followed on a daily basis. Body mass, muscle strength of individual hind limbs (mean of three tests was recorded), and locomotor profile (catwalk, Noldus) were analyzed.
Here, we sought to determine the effect of CBE on the motor recovery after nerve injury in non-transgenic mice. CBE was administrated on a daily basis (10 mg/kg/day), from […] until the end of the study, 12 days after injury.

[2] = tested on: muscle and spinal transcriptomes of SOD1 mice; assay: Muscle and spinal transcriptomes of SOD1 mice after CBE treatment (GO biological functions of restored genes); type: in vivo; conditions: spinal cord and muscle
non-transgenic mice [3] = conditions: mouse, in vivo
[4] = tested on: co-culture of spinal explants and myoblasts; assay: Co-culture of spinal explants and myoblasts: neurite network / area of innervation; type: cell-based; conditions: ambroxol 100 μM in culture medium
Protocol: We next sought to determine whether another inhibitor of GlcCer degradation could support axonal plasticity and improve the phenotype of SOD1 mice. We used ambroxol, which is an inhibitor of GBA2 activity (Narita, A. et al. Ambroxol chaperone therapy for neuronopathic Gaucher disease: A pilot study. Ann. Clin. Transl. Neurol. 3, 200-215 (2016)). First, ambroxol (100 μM) was added to the culture medium of a co-culture of spinal explants and myoblasts. […] Next, ambroxol was given per os to SOD1 mice (120-150 mg/kg/day) from day 75 to day 95. […] In a second cohort of mice, the treatment was initiated at disease onset to study ambroxol's effect on late disease stage and survival. […] Next, ambroxol was given to mice subjected to sciatic nerve injury in order to determine its effects on peripheral nerve regeneration.

[5] = CBE 10 mg/kg/day, 12 days after injury
[6] = CBE 10 mg/kg/day, until 12 days after injury, vs placebo
[7] = ambroxol, second cohort, treatment initiated at disease onset
[8] = ambroxol 120-150 mg/kg/day for 10 days

**Q.** What does the source list for `OC1C(O)C(O)C2OC2C1O` (centres unmarked) [CBE, 1,2-anhydro-myo-inositol]?
**A.** GCase activity in the spinal cord (GCase): decrease; fibrillation events (electromyogram), sign of muscle denervation, vs SOD1 placebo group (SOD1 mice; CBE 10 mg/kg/day i.p., 95 days of age): less frequently detected; number of fully innervated NMJs (SOD1 mice; CBE 10 mg/kg/day i.p., 95 days of age, tibialis anterior): comparable to wild type and significantly higher to SOD1 mice receiving the placebo; loss of large motor neurons in lumbar spinal cord compared to wild type (SOD1 mice; CBE 10 mg/kg/day i.p., 95 days of age, placebo SOD1 almost 60% loss): 30%; presence of axonal GM1a at presynaptic axons of NMJs (SOD1 mice; CBE 10 mg/kg/day i.p., SOD1 mice): clearly detectable; development of locomotor impairments (average speed, stride length, paw swing; catwalk) (SOD1 mice; CBE 10 mg/kg/day i.p., SOD1 mice at 95 days of age): completely prevented; delay of disease onset (onset of muscle strength loss) compared to the placebo group (SOD1 mice; CBE 10 mg/kg/day i.p., from 75 to 95 days of age): 6 days; astrocyte activation (GFAP staining fluorescence intensity) (SOD1 mice; CBE 10 mg/kg/day i.p., spinal cord ventral horn): no influence; locomotor profile of the injured paw (contact area, hindlimb step cycle) (non-transgenic mice [1]; [5]): closer to the contralateral side; muscle fibrillation at sacrifice (non-transgenic mice [1]; [5]): less muscle fibrillation; muscle strength recovery after sciatic nerve injury (non-transgenic mice [1]; [6]): occurred faster, by several days; time to toe spreading after sciatic nerve injury (non-transgenic mice [1]; [6]): occurred faster, by several days; global transcriptomic deregulations in SOD1 mice [2]: partially corrected; loss of motor function in non-transgenic mice (non-transgenic mice [3]): without inducing loss of motor function; side effects (body mass and muscle strength evolution upon treatment) (non-transgenic mice [3]): does not induce side effects

**Q.** With `Nc1c(Br)cc(Br)cc1CN[C@H]1CC[C@H](O)CC1` [ambroxol, trans-4-(2-Amino-3,5-dibrombenzylamino)-cyclohexanol] as the molecule, how does the “innervation status (NMJ integrity)” value (SOD1 mice; ambroxol 120-150 mg/kg/day per os, day 75 to 95, at 95 days of age) read?
**A.** improved

**Q.** And the “delay of first loss of muscle strength (disease onset) compared to placebo” value (SOD1 mice; ambroxol 120-150 mg/kg/day per os, day 75 to day 95)?
**A.** ~10 days

**Q.** What about the “improvement of total survival” value (SOD1 mice; [7]) of the same molecule?
**A.** more than 8 days

**Q.** And the muscle strength (SOD1 mice; [7])?
**A.** significantly improved

**Q.** And the “muscle strength of ipsilateral hind paws after sciatic nerve injury” value (non-transgenic mice [1]; [8])?
**A.** significantly improved

**Q.** What about the “peripheral nerve regeneration after injury” value (non-transgenic mice [1]; [8]) of the same molecule?
**A.** significantly improves

**Q.** What about the correct muscle re-innervation (non-transgenic mice [1]; ambroxol 120-150 mg/kg/day, ten days after injury) of the same molecule?
**A.** significantly improves

**Q.** And the “neurite network (total area of innervation) of co-culture” value [4]?
**A.** improved
